This note sets out measurements from paper PMC12122380 (2025).

The subject of assay [1] is Pepper (RNA, aptamer) GGCGCACUGGCGCUGCGCCUUCGGGCGCCAAUCGUAGCGUGUCGGCGCC
As to the kind of experiment: AE-HPLC of covalent adduct. The following applies: K+ 150 mM, Mg2+ 2 mM, 50 mM MES pH 6.0, 15% DMSO, 37 °C, 50 µM ligand.

The test system of assay [2] is Tt C15U preQ1 RNA aptamer (RNA, riboswitch) CUGGGUCGCAGUAAUCCCAGUUAACAAAACAAG
In words: AE-HPLC of covalent adduct. The following applies: K+ 100 mM, Mg2+ 2 mM, 50 mM MES pH 6.0, 37 °C, 48 h, 125 µM ligand.

The test system of assay [3] is Pepper (RNA, aptamer) GGCGCACUGGCGCUGCGCCUUCGGGCGCCAAUCGUAGCGUGUCGGCGCC
In words: covalent adduct formation, fluorescence. The following applies: K+, Mg2+.

Assay [4] has as its system Tt wt preQ1 RNA aptamer (RNA, riboswitch) CUGGGUCGCAGUAACCCCAGUUAACAAAACAAG
As to the kind of experiment: AE-HPLC alkylation kinetics, Michaelis-Menten fit. The following applies: K+ (KCl); covalent; apparent; MES pH 6.0, 37 °C.

Assay [5] relates to 58 nt (Liu) self-biotinylating ribozyme (RNA, ribozyme) GGCCGCUCCAGAAGAGGGCCCCCUUGCCCGUUAUCGGGGGCUAGGCUCGAUGUCGGCC
As to the kind of experiment: RP-HPLC of covalent adduct. The following applies: K+ 100 mM, Mg2+ 5 mM, 50 mM HEPES pH 7.4, 37 °C, 2.5 mM ligand.

Assay [6] shares this test system. In words: PAGE, streptavidin blot of covalent adduct. The following applies: K+ 100 mM, Mg2+ 5 mM, 50 mM HEPES pH 7.4, 37 °C, 1 mM ligand, 5 h.
For assay [7], the system named is 155 nt (Szostak) self-biotinylating ribozyme (RNA, ribozyme) GGAGGCACCACGGCUGGAUCCGGUUUAUUAUCAUGAGCCCGACUCGGGCAGCACUGUACAUAAGCUCGGAUGCCAUAGUUUAGACACUAUGGACGUAAAGCCCAUGCUAGGCAAAGACAUUGACUGCAUGAGCGCCGCCUUGGUCAUUAGGAUCG
As to the kind of experiment: PAGE, streptavidin blot of covalent adduct. The following applies: K+ 100 mM, Mg2+ 5 mM, 50 mM HEPES pH 7.4, 37 °C, 1 mM or 50 µM ligand.

Assay [8] concerns Pepper (RNA, aptamer) GGCGCACUGGCGCUGCGCCUUCGGGCGCCAAUCGUAGCGUGUCGGCGCC
As to the kind of experiment: fluorescence emission. The settings on record: K+ 100 mM, Mg2+ 2 mM; 50 mM MES pH 6.0; 0.5 µM RNA, 0.5 µM HBC; noncovalent.

The test system is the same in assay [9]. As to the kind of experiment: AE-HPLC, FT-ICR mass spectrometry of covalent adduct. The following applies: K+ 150 mM, Mg2+ 2 mM; covalent at G41; 50 mM MES pH 6.0, 37 °C; no crosslinking without Mg2+.

With `CN(CCCBr)c1ccc(/C=C(\C#N)c2ccc(C#N)cc2)cc1`, the binding result in assay [1] was “yes”. In the case of `Nc1nc2[nH]cc(CNCCCBr)c2c(=O)[nH]1`, the binding result in assay [2] is recorded as “yes”. Take `C=Cc1ccc(/C(C#N)=C/c2ccc(N(C)CCCOS(C)(=O)=O)cc2)cc1`: the binding entry in assay [3] is reported as “yes”. Turning to `Nc1nc(N)c2c(CNCCCBr)c[nH]c2n1`, the Michaelis constant (KM) (as a rule, the substrate concentration at which the rate is half of its maximum) in assay [4] amounted to 0.162 ± 0.016 µM. Turning to `O=C1N[C@H]2[C@H](CS[C@H]2CCCCC(=O)OCCOCCCCBr)N1`, the binding result in assay [5] and in assay [6] was “yes” throughout. For the molecule `O=C(CI)NCCNC(=O)CCCC[C@@H]1SC[C@@H]2NC(=O)N[C@@H]21`, the binding result in assay [7] was “yes”. Regarding `CN(CCO)c1ccc(/C=C(\C#N)c2ccc(C#N)cc2)cc1`, the binding result in assay [8] was “yes”. In the case of `CN(CCCOS(C)(=O)=O)c1ccc(/C=C(\C#N)c2ccc(C#N)cc2)cc1`, the binding entry in [9] is “yes”.
